Measurements from patent US20230135729A1, “COMPOUND WITH ANTI-SPORE ACTIVITY AND PHARMACEUTICAL COMPOSITION THEREOF” (priority 2020, published 2023).
Values after ≈ are worked out from the molar mass of the structure shown. Where two headings read alike, the source gives them in different places.

Tests used:
Format in all cases: cell-based
[1] = system: spores of ATCC 630 strain; experiment: Inhibition of germination of C. difficile spores (MIC), strain ATCC 630; settings: Clostridioides difficile, ATCC630, 1 h, read-out: MIC (minimum concentration that completely inhibits spore germination)
How it was run: (§1)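 Spores heat-activated for 30 min at 65° C and washed, then preincubated with compound (10 mM DMSO stock) in BHIS at 37° C. Germination was triggered with sodium taurocholate, and OD580 was read each minute for 60 min. Inhibition = 100% − germination rate, from final vs initial OD relative to germinant-only controls.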

[2] = system: spores of ATCC 43255 strain; experiment: Inhibition of germination of C. difficile spores (MIC), strain ATCC 43255; settings: Clostridioides difficile, ATCC43255, 1 h, read-out: MIC (minimum concentration that completely inhibits spore germination)
How it was run: as §1

[3] = system: spores of ATCC BBA1870 strain; experiment: Inhibition of germination of C. difficile spores (MIC), strain ATCC BBA1870; settings: Clostridioides difficile, ATCCBBA1870STRAIN, 1 h, read-out: MIC (minimum concentration that completely inhibits spore germination)
How it was run: as §1

[4] = strain 630, sodium taurocholate as germinant, BHIS medium, 37° C., OD580 for 60 min
[5] = strain 43255, sodium taurocholate as germinant, BHIS medium, 37° C., OD580 for 60 min
[6] = strain 1870, sodium taurocholate as germinant, BHIS medium, 37° C., OD580 for 60 min

## CC[C@H](NC(=O)C[C@@H](C)[C@H]1CC[C@H]2[C@@H]3C(=O)C[C@@H]4CC(=O)CC[C@]4(C)[C@H]3CC[C@]12C)c1ccc(Cl)s1 [Compound I-69]
[1]; [4]
  MIC: 8 µM (≈ 4.26 µg/mL)
[2]; [5]
  MIC: 16 µM (≈ 8.52 µg/mL)
[3]; [6]
  MIC: 8 µM (≈ 4.26 µg/mL)

## CC(C)[C@H](NC(=O)C[C@@H](C)[C@H]1CC[C@H]2[C@@H]3[C@H](OS(=O)(=O)O)C[C@@H]4CC(=O)CC[C@]4(C)[C@H]3CC[C@]12C)c1ccc(Cl)s1 [Compound I-111]
[1]; [4]
  MIC: > 256 µM
[2]; [5]
  MIC: > 256 µM
[3]; [6]
  MIC: > 256 µM

## CC[C@@H](NC(=O)C[C@@H](C)[C@H]1CC[C@H]2[C@@H]3[C@H](OC(=O)CCCCCCC(=O)O)C[C@@H]4CC(=O)CC[C@]4(C)[C@H]3CC[C@]12C)c1ccc(Cl)s1 [Compound I-187]
[1]; [4]
  MIC: 0.125 µM (≈ 0.0863 µg/mL)
[2]; [5]
  MIC: 0.125 µM (≈ 0.0863 µg/mL)
[3]; [6]
  MIC: 0.125 µM (≈ 0.0863 µg/mL)

## CC(C)[C@H](NC(=O)C[C@@H](C)[C@H]1CC[C@H]2[C@@H]3[C@H](O)C[C@@H]4CC(=O)CC[C@]4(C)[C@H]3CC[C@]12C)c1cccs1 [Compound I-135]
[1]; [4]
  MIC: > 256 µM
[2]; [5]
  MIC: > 256 µM
[3]; [6]
  MIC: > 256 µM

## CCC(NC(=O)C[C@@H](C)[C@H]1CC[C@H]2[C@@H]3C(=O)C[C@@H]4CC(=O)CC[C@]4(C)[C@H]3CC[C@]12C)c1ccc(S(=O)(=O)O)s1 (stereo partly drawn) [Compound I-39]
[1]; [4]
  MIC: 0.5 µM (≈ 0.289 µg/mL)
[2]; [5]
  MIC: 0.5 µM (≈ 0.289 µg/mL)
[3]; [6]
  MIC: 1 µM (≈ 0.578 µg/mL)

## CC(C)[C@@H](NC(=O)C[C@@H](C)[C@H]1CC[C@H]2[C@@H]3C(=O)C[C@@H]4CC(=O)CC[C@]4(C)[C@H]3CC[C@]12C)c1ccc(Br)s1 [Compound I-80]
[1]; [4]
  MIC: 0.125 µM (≈ 0.0738 µg/mL)
[2]; [5]
  MIC: 0.125 µM (≈ 0.0738 µg/mL)
[3]; [6]
  MIC: 0.125 µM (≈ 0.0738 µg/mL)

## C[C@H](CC(=O)NC(c1cccs1)C(C)(C)C)[C@H]1CC[C@H]2[C@@H]3C(=O)C[C@@H]4CC(=O)CC[C@]4(C)[C@H]3CC[C@]12C (stereo partly drawn) [Compound I-43]
[1]; [4]
  MIC: 32 µM (≈ 16.8 µg/mL)
[2]; [5]
  MIC: 32 µM (≈ 16.8 µg/mL)
[3]; [6]
  MIC: 64 µM (≈ 33.7 µg/mL)

## CC(=O)O[C@@H]1CC2=CC(=O)CC[C@]2(C)[C@H]2CC[C@]3(C)[C@@H]([C@H](C)CC(=O)N[C@@H](c4ccc(Cl)s4)C(C)C)CC[C@H]3[C@H]12 [I-158 -1]
[1]; [4]
  MIC: 0.5 µM (≈ 0.294 µg/mL)
[2]; [5]
  MIC: 0.5 µM (≈ 0.294 µg/mL)
[3]; [6]
  MIC: 0.5 µM (≈ 0.294 µg/mL)

## CC(C)[C@@H](NC(=O)C[C@@H](C)[C@H]1CC[C@H]2[C@@H]3[C@@H](O)C[C@@H]4C[C@H](O)CC[C@]4(C)[C@H]3CC[C@]12C)c1ccc(Br)s1 [Compound I-142]
[1]; [4]
  MIC: 32 µM (≈ 19 µg/mL)
[2]; [5]
  MIC: 32 µM (≈ 19 µg/mL)
[3]; [6]
  MIC: 32 µM (≈ 19 µg/mL)

## C[C@H](CC(=O)NC(c1cccs1)C1CCCCC1)[C@H]1CC[C@H]2[C@@H]3C(=O)C[C@@H]4CC(=O)CC[C@]4(C)[C@H]3CC[C@]12C (stereo partly drawn) [Compound I-54]
[1]; [4]
  MIC: 256 µM (≈ 141 µg/mL)
[2]; [5]
  MIC: > 256 µM
[3]; [6]
  MIC: > 256 µM

## CC[C@@H](NC(=O)C[C@@H](C)[C@H]1CC[C@H]2[C@@H]3C(=O)C[C@@H]4CC(=O)CC[C@]4(C)[C@H]3CC[C@]12C)c1ccc(C(C)=O)s1 [Compound I-201]
[1]; [4]
  MIC: 32 µM (≈ 17.3 µg/mL)
[2]; [5]
  MIC: 32 µM (≈ 17.3 µg/mL)
[3]; [6]
  MIC: 32 µM (≈ 17.3 µg/mL)

## CCC(NC(=O)C[C@@H](C)[C@H]1CC[C@H]2[C@@H]3C(=O)C[C@@H]4CC(=O)CC[C@]4(C)[C@H]3CC[C@]12C)c1ccccc1 (stereo partly drawn) [Compound I-58]
[1]
  MIC: 4 µM (≈ 1.97 µg/mL)
[2]
  MIC: 4 µM (≈ 1.97 µg/mL)
[3]
  MIC: 8 µM (≈ 3.93 µg/mL)

## CC[C@H](NC(=O)C[C@@H](C)[C@H]1CC[C@H]2[C@@H]3[C@H](O)C[C@@H]4CC(=O)CC[C@]4(C)[C@H]3CC[C@]12C)c1cccs1 [Compound I-132]
[1]; [4]
  MIC: 256 µM (≈ 128 µg/mL)
[2]; [5]
  MIC: 128 µM (≈ 64 µg/mL)
[3]; [6]
  MIC: > 256 µM

## CC[C@@H](NC(=O)C[C@@H](C)[C@H]1CC[C@H]2[C@@H]3[C@H](OC(C)=O)CC4=CC(=O)C=C[C@]4(C)[C@H]3CC[C@]12C)c1ccc(Br)s1 [I-159 -1]
[1]; [4]
  MIC: 0.5 µM (≈ 0.308 µg/mL)
[2]; [5]
  MIC: 0.5 µM (≈ 0.308 µg/mL)
[3]; [6]
  MIC: 0.5 µM (≈ 0.308 µg/mL)

## CC(C)C(NC(=O)C[C@@H](C)[C@H]1CC[C@H]2[C@@H]3C(=O)C[C@@H]4CC(=O)CC[C@]4(C)[C@H]3CC[C@]12C)c1ccc(Br)s1 (stereo partly drawn) [Compound I-78]
[1]; [4]
  MIC: 0.5 µM (≈ 0.295 µg/mL)
[2]; [5]
  MIC: 1 µM (≈ 0.591 µg/mL)
[3]; [6]
  MIC: 0.5 µM (≈ 0.295 µg/mL)

## CC[C@@H](NC(=O)C[C@@H](C)[C@H]1CC[C@H]2[C@@H]3[C@H](OP(=O)(O)O)C[C@@H]4CC(=O)CC[C@]4(C)[C@H]3CC[C@]12C)c1ccc(Cl)s1 [Compound I-191]
[1]; [4]
  MIC: 64 µM (≈ 39.3 µg/mL)
[2]; [5]
  MIC: 64 µM (≈ 39.3 µg/mL)
[3]; [6]
  MIC: 64 µM (≈ 39.3 µg/mL)
